The record followed here is patent US7842695B2, “Substituted pyrazole compounds” (Merck Patent GmbH, priority 2003, dated 2010).

The target of experiment [1] is 5-HT2A receptors (UniProt P14842). The experiment can be described thus: in-vitro affinity to 5-HT2A receptors, [3H]ketanserine displacement (Example A1). The experiment is classed as binding. The source says:
The 5-HT2A receptors are exposed both to [^3H]ketanserine (a substance known for its affinity to the receptor) and also to the test compound. The decrease in the affinity of [^3H]ketanserine to the receptor is an indication of the affinity of the test substance to the 5-HT2A receptor.

Experiment [2] concerns the target T1, 5 HT2C receptor (Homo sapiens, UniProt P28335).
T1 sequence (P28335 33-458): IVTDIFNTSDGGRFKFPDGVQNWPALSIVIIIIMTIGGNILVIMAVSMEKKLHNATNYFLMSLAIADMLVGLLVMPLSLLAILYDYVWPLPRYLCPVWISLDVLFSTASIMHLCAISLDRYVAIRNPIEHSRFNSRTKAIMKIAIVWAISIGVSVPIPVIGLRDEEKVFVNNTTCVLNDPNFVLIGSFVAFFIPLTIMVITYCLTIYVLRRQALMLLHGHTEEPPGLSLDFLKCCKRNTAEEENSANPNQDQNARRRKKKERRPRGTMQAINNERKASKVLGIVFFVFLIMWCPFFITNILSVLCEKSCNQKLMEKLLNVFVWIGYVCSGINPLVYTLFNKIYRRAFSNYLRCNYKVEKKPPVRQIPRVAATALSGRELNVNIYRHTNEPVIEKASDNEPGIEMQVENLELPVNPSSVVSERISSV
The experiment can be described thus: affinity to the 5 HT2C receptor. The experiment is classed as binding.

A word on the IC50: it is the midpoint of a concentration-inhibition curve. Consider `CN(C)C1CCN(Cc2cnn(-c3ccc(-c4ccc(F)cc4)cc3)c2-c2ccco2)C1` (centres unmarked) [Example 537, {1-[1-(4′-Fluorobiphenyl-4-yl)-5-furan-2-yl-1H-pyrazol-4-ylmethyl]pyrrolidin-3-yl}dimethylamine], for which the IC50 in experiment [1] amounted to 3.1 nM; in experiment [2] it was 620 nM.

In the case of `CCN1CCN(Cc2cnn(-c3ccc(-c4ccc(F)cc4)cc3)c2-c2ccco2)CC1` [Example 539, 1-Ethyl-4-[1-(4′-fluorobiphenyl-4-yl)-5-furan-2-yl-1H-pyrazol-4-ylmethyl]piperazine], the IC50 in experiment [1] amounted to 3.6 nM; in experiment [2], 310 nM.

As for `CN1CCN(Cc2cnn(-c3ccc(-c4cccn4C(=O)OC(C)(C)C)cc3)c2-c2ccccc2F)CC1` [Example 643, tert-Butyl 2-{4-[5-(2-fluorophenyl)-4-(4-methylpiperazin-1-ylmethyl)pyrazol-1-yl]phenyl}pyrrole-1-carboxylate], the IC50 in experiment [1] is 48 nM; in experiment [2], 930 nM.

On to `CCN1CCN(Cc2cnn(-c3ccc(-c4ccc5c(c4)OCO5)cc3)c2-c2ccco2)CC1` [Example 533, 1-[1-(4-Benzo-1,3-dioxol-5-ylphenyl)-5-furan-2-yl-1H-pyrazol-4-ylmethyl]-4-ethylpiperazine], for which the IC50 in experiment [1] stood at 1.6 nM; in experiment [2] it was 224 nM.

Regarding `Cc1ccc(-c2ccc(-n3ncc(CN4CCN(C)CC4)c3-c3ccccc3F)cc2)cc1F` [Example 625, 1-[1-(3′-Fluoro-4′-methylbiphenyl-4-yl)-5-(2-fluorophenyl)-1H-pyrazol-4-ylmethyl]-4-methylpiperazine], the IC50 in experiment [1] was found to be 36 nM; in experiment [2], 620 nM.

`COc1ccccc1-c1c(CN2CCN(C)CC2)cnn1-c1ccc(-c2cc(F)ccc2F)cc1` [Example 660, 1-[1-(2′,5′-Difluorobiphenyl-4-yl)-5-(2-methoxyphenyl)-1H-pyrazol-4-ylmethyl]-4-methylpiperazine]: the IC50 in experiment [1] turned out to be 77 nM; in experiment [2] it was 630 nM.

On to `Fc1cccc(-c2ccc(-n3ncc(CN4CCN(C5CCCC5)CC4)c3-c3ccco3)cc2)c1` [Example 605, 1-Cyclopentyl-4-[1-(3′-fluorobiphenyl-4-yl)-5-furan-2-yl-1H-pyrazol-4-ylmethyl]piperazine], for which the IC50 in experiment [1] was 26.8 nM; in experiment [2], 2940 nM.

For the molecule `c1coc(-c2c(CN3CCN(C4CCCC4)CC3)cnn2-c2ccc(-c3ccc4c(c3)OCO4)cc2)c1` [Example 569, 1-[1-(4-Benzo-1,3-dioxol-5-ylphenyl)-5-furan-2-yl-1H-pyrazol-4-ylmethyl]-4-cyclopentylpiperazine], the IC50 in experiment [1] came out at 12 nM; in experiment [2], 1000 nM.

Turning to `CN(C)CCN(C)Cc1cnn(-c2ccc(-c3ccc(F)cc3)cc2)c1-c1cccc(Cl)c1` [Example 639, N-[5-(3-Chlorophenyl)-1-(4′-fluorobiphenyl-4-yl)-1H-pyrazol-4-ylmethyl]-N,N′,N′-trimethylethane-1,2-diamine], the IC50 stood at 43 nM in experiment [1] and 1000 nM in experiment [2].

Turning to `CN1CCN(Cc2cnn(-c3ccc(-c4cc(F)c(OC(F)(F)F)c(F)c4)cc3)c2-c2ccccc2F)CC1` [Example 623, 1-[1-(3′,5′-Difluoro-4′-trifluoromethoxybiphenyl-4-yl)-5-(2-fluorophenyl)-1H-pyrazol-4-ylmethyl]-4-methylpiperazine], the IC50 in experiment [1] is 35 nM; in experiment [2], 180 nM.

As for `CCN(CC)Cc1cnn(-c2ccc(-c3ccc4c(c3)OCO4)cc2)c1-c1ccco1` [Example 602, [1-(4-Benzo-1,3-dioxol-5-ylphenyl)-5-furan-2-yl-1H-pyrazol-4-ylmethyl]diethylamine], the IC50 in experiment [1] stood at 26 nM; in experiment [2], 610 nM.

Turning to `Cc1ccoc1-c1c(CN(C)C)cnn1-c1ccc(-c2ccc(F)cc2)cc1` [Example 553, [1-(4′-Fluorobiphenyl-4-yl)-5-(3-methyl-2-furanyl)-1H-pyrazol-4-ylmethyl]dimethylamine], the IC50 in experiment [1] is 6.5 nM; in experiment [2], 360 nM.

As for `Fc1ccc(-c2ccc(-n3ncc(CN4CCC(COc5ccccn5)CC4)c3-c3ccco3)cc2)cc1` [Example 561, 2-{1-[1-(4′-Fluorobiphenyl-4-yl)-5-furan-2-yl-1H-pyrazol-4-ylmethyl]piperidin-4-ylmethoxy}pyridine], the concentration for half-maximal inhibition (IC50) in experiment [1] was determined as 9 nM; in experiment [2] it was 1000 nM.

In the case of `CN1CCC(N(C)Cc2cnn(-c3ccc(-c4ccc(F)cc4)cc3)c2-c2ccco2)C1` (centres unmarked) [Example 543, [1-(4′-Fluorobiphenyl-4-yl)-5-furan-2-yl-1H-pyrazol-4-ylmethyl]methyl-(1-methyl-3-pyrrolidinyl)amine], the IC50 turned out to be 4 nM in experiment [1] and 370 nM in experiment [2].

As to `Fc1ccc(-c2ccc(-n3ncc(CN4CCN(CCN5CCCC5)CC4)c3-c3ccco3)cc2)cc1` [Example 633, 1-[1-(4′-Fluorobiphenyl-4-yl)-5-furan-2-yl-1H-pyrazol-4-ylmethyl]-4-(2-pyrrolidin-1-ylethyl)piperazine], the IC50 amounted to 41 nM in experiment [1] and 1000 nM in experiment [2].

In the case of `CCN1CCN(Cc2cnn(-c3ccc(-c4ccc(F)cc4)cc3)c2-n2cccc2)CC1` [Example 613, 1-Ethyl-4-[1-(4′-fluorobiphenyl-4-yl)-5-pyrrol-1-yl-1H-pyrazol-4-ylmethyl]piperazine], the IC50 in experiment [1] was 32 nM; in experiment [2] it was 1000 nM.

As for `c1coc(-c2c(CN3CCNCC3)cnn2-c2ccc(-c3ccc4c(c3)OCCO4)cc2)c1` [Example 595, 1-{1-[4-(2,3-Dihydrobenzo-1,4-dioxin-6-yl)phenyl]-5-furan-2-yl-1H-pyrazol-4-ylmethyl}piperazine], the IC50 came to 22 nM in experiment [1] and 150 nM in experiment [2].

Regarding `COc1ccc(-c2ccc(-n3ncc(CN(C)C)c3-c3ccco3)cc2)cc1` [Example 542, [5-Furan-2-yl-1-(4′-methoxybiphenyl-4-yl)-1H-pyrazol-4-ylmethyl]dimethylamine], the IC50 amounted to 3.8 nM in experiment [1] and 290 nM in experiment [2].

As for `CN1CCN(Cc2cnn(-c3ccc(-c4cccc(F)c4)cc3)c2-c2ccccc2F)CC1` [Example 549, 1-[1-(3′-Fluorobiphenyl-4-yl)-5-(2-fluorophenyl)-1H-pyrazol-4-ylmethyl]-4-methylpiperazine], the values for the IC50 in experiment [1] and in experiment [2] were 5.4 nM and 460 nM, respectively.

In the case of `COc1ccc(-c2ccc(-n3ncc(CN4CCN(C5CCCC5)CC4)c3-c3ccco3)cc2)cc1` [Example 552, 1-Cyclopentyl-4-[5-furan-2-yl-1-(4′-methoxybiphenyl-4-yl)-1H-pyrazol-4-ylmethyl]piperazine], the IC50 in experiment [1] worked out at 6.1 nM; in experiment [2] it was 2950 nM.

`CN1CCN(Cc2cnn(-c3ccc(-c4ccc(F)cc4)cn3)c2-c2ccco2)CC1` [Example 590, 1-{1-[5-(4-Fluorophenyl)pyridin-2-yl]-5-furan-2-yl-1H-pyrazol-4-ylmethyl}-4-methylpiperazine]: the IC50 is 20 nM in experiment [1] and 1000 nM in experiment [2].

Turning to `Fc1ccc(-c2ccc(-n3ncc(CN4CCN(C5CCCC5)CC4)c3-c3ccco3)nc2)cc1` [Example 591, 1-Cyclopentyl-4-{1-[5-(4-fluorophenyl)pyridin-2-yl]-5-furan-2-yl-1H-pyrazol-4-ylmethyl}piperazine], the figures for the IC50 in experiment [1] and in experiment [2] were 20 nM and 1000 nM, respectively.

Regarding `CN1CCN(Cc2cnn(-c3ccc(-c4ccc5c(c4)OCCO5)cc3)c2-c2ccco2)CC1` [Example 535, 1-{1-[4-(2,3-Dihydrobenzo-1,4-dioxin-6-yl)phenyl]-5-furan-2-yl-1H-pyrazol-4-ylmethyl}-4-methylpiperazine], the results for the IC50 in experiment [1] and in experiment [2] were 2.3 nM and 350 nM, respectively.

For the molecule `COc1ccccc1-c1c(CN2CCN(C)CC2)cnn1-c1ccc(-c2ccccc2F)cc1` [Example 647, 1-[1-(2′-Fluorobiphenyl-4-yl)-5-(2-methoxyphenyl)-1H-pyrazol-4-ylmethyl]-4-methylpiperazine], the values for the IC50 in experiment [1] and in experiment [2] were 52 nM and 840 nM, respectively.

Consider `COc1ccc(-c2c(CN3CCN(CCN(C)C)CC3)cnn2-c2ccc(-c3ccc(F)cc3)cc2)cc1` [Example 607, (2-{4-[1-(4′-Fluorobiphenyl-4-yl)-5-(4-methoxyphenyl)-1H-pyrazol-4-ylmethyl]-1-piperazinyl}ethyl)dimethylamine], for which the 50% inhibitory concentration (IC50) was determined as 29 nM in experiment [1] and 1000 nM in experiment [2].

With `CN1CCN(Cc2cnn(-c3ccc(-c4ccc5c(c4)OCO5)cc3)c2-c2ccco2)CC1` [Example 550, 1-[1-(4-Benzo-1,3-dioxol-5-ylphenyl)-5-furan-2-yl-1H-pyrazol-4-ylmethyl]-4-methylpiperazine], the results for the IC50 in experiment [1] and in experiment [2] were 5.8 nM and 170 nM, respectively.

Take `CN1CCN(Cc2cnn(-c3ccc(-c4ccc5c(c4)OCO5)cc3)c2-c2ccccc2F)CC1` [Example 563, 1-[1-(4-Benzo-1,3-dioxol-5-ylphenyl)-5-(2-fluorophenyl)-1H-pyrazol-4-ylmethyl]-4-methylpiperazine]: the IC50 in experiment [1] stood at 10 nM; in experiment [2], 510 nM.

As for `OC1CCN(Cc2cnn(-c3ccc(-c4ccc(F)cc4)cc3)c2-c2ccccc2Cl)C1` (centres unmarked) [Example 636, 1-[5-(2-Chlorophenyl)-1-(4′-fluorobiphenyl-4-yl)-1H-pyrazol-4-ylmethyl]pyrrolidin-3-ol], the IC50 in experiment [1] is 42 nM; in experiment [2], 1000 nM.
